In patent publication US20030086928A1, “Compositions associated with complex formation and methods of use thereof” (priority 2000, published 2003):

What was measured:
[1] = system: T1, CREB:CBP complexes in D5 cells; assay: Immunofluorescence of CREB:CBP complexes in D5 cells with αKK antiserum; assay type: cell-based; conditions: 10 minutes
T1 construct: endogenous in cells; host or cells: D5 cells (NIH 3T3 with rat somatostatin gene)
Method: (§1) D5 cells were grown on glass coverslips and stimulated with forskolin and 3-isobutyl-1-methylxanthine (IBMX) or 12-O-tetradecanoyl phorbol acetate (TPA) for 10 minutes. The cells were methanol-fixed at […] for 5 min followed by three 5 min washes in PBS. Cells were blocked for 30 min with 3% BSA in PBS and donkey serum diluted 1:50. Primary antibodies were diluted in 3% BSA/PBS to 1:2000 for the phospho-CREB specific antibody 5322 or 1:100 (3 μg/ml) for the KID/KIX specific antibody. The cells were incubated with the primary antibodies for 1 hr at RT, followed by 3 washes with PBS and a 1 hr incubation with Biotin-SP-conjugated Donkey anti rabbit IgG diluted 1:200 in 3% BSA/PBS. After 3 washes in PBS, Texas Red conjugated Streptavidin was added at 1:200 dilution in 3% BSA/PBS. After one hour incubation, cells were washed 3 times in PBS and mounted in 90% glycerol/PBS containing 1 mg/ml phenylenediamine.
D5 cells were then treated with forskolin or TPA for 10 minutes.

[2] = system: somatostatin mRNA in D5 cells; assay: Northern blot of somatostatin mRNA in D5 cells; assay type: cell-based, rat; conditions: 4 hours
Source text: In addition to cAMP, other stimuli such as the phorbol ester TPA can promote Ser133 phosphorylation of CREB; yet these stimuli are unable to induce target gene activation via CBP, reflecting either a block in CREB:CBP complex formation or in the subsequent recruitment of the transcriptional apparatus. To evaluate formation of CREB:CBP complexes in vivo, NIH 3T3 cells expressing chromosomal copies of the rat somatostatin gene, hereafter referred to as D5 cells (Montminy et al. (1986) J Neurosci 6:803-813) were used. […] Western blot assays of total CREB and phospho (Ser133) CREB (P-CREB) levels were performed in control (C) or treated D5 cells exposed to either forskolin (F) or TPA (T) for 30 minutes. Northern blot assays were then performed to detect somatostatin (SOM) and tubulin (TUB) mRNA levels in control D5 cells (C) and in D5 cells treated with forskolin (F) or TPA (T) for 4 hours.

[3] = system: phospho (Ser133) CREB in D5 cells; assay: Ser133 phosphorylation of CREB in D5 cells (Western blot / immunofluorescence with antiserum 5322); assay type: cell-based
Method: as §1
In addition to cAMP, other stimuli such as the phorbol ester TPA can promote Ser133 phosphorylation of CREB; yet these stimuli are unable to induce target gene activation via CBP, reflecting either a block in CREB:CBP complex formation or in the subsequent recruitment of the transcriptional apparatus. […]

T1 sequence (Q01147 whole entry): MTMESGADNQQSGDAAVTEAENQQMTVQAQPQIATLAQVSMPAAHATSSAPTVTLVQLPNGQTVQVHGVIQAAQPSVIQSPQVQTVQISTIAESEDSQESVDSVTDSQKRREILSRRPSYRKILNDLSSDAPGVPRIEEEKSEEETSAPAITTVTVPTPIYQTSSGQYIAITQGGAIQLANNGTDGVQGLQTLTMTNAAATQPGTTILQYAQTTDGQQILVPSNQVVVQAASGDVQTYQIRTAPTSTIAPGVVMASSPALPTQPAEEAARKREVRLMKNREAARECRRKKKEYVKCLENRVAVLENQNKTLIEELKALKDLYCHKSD
T1 sequence (P45481 2-2441 limits assumed, further chain): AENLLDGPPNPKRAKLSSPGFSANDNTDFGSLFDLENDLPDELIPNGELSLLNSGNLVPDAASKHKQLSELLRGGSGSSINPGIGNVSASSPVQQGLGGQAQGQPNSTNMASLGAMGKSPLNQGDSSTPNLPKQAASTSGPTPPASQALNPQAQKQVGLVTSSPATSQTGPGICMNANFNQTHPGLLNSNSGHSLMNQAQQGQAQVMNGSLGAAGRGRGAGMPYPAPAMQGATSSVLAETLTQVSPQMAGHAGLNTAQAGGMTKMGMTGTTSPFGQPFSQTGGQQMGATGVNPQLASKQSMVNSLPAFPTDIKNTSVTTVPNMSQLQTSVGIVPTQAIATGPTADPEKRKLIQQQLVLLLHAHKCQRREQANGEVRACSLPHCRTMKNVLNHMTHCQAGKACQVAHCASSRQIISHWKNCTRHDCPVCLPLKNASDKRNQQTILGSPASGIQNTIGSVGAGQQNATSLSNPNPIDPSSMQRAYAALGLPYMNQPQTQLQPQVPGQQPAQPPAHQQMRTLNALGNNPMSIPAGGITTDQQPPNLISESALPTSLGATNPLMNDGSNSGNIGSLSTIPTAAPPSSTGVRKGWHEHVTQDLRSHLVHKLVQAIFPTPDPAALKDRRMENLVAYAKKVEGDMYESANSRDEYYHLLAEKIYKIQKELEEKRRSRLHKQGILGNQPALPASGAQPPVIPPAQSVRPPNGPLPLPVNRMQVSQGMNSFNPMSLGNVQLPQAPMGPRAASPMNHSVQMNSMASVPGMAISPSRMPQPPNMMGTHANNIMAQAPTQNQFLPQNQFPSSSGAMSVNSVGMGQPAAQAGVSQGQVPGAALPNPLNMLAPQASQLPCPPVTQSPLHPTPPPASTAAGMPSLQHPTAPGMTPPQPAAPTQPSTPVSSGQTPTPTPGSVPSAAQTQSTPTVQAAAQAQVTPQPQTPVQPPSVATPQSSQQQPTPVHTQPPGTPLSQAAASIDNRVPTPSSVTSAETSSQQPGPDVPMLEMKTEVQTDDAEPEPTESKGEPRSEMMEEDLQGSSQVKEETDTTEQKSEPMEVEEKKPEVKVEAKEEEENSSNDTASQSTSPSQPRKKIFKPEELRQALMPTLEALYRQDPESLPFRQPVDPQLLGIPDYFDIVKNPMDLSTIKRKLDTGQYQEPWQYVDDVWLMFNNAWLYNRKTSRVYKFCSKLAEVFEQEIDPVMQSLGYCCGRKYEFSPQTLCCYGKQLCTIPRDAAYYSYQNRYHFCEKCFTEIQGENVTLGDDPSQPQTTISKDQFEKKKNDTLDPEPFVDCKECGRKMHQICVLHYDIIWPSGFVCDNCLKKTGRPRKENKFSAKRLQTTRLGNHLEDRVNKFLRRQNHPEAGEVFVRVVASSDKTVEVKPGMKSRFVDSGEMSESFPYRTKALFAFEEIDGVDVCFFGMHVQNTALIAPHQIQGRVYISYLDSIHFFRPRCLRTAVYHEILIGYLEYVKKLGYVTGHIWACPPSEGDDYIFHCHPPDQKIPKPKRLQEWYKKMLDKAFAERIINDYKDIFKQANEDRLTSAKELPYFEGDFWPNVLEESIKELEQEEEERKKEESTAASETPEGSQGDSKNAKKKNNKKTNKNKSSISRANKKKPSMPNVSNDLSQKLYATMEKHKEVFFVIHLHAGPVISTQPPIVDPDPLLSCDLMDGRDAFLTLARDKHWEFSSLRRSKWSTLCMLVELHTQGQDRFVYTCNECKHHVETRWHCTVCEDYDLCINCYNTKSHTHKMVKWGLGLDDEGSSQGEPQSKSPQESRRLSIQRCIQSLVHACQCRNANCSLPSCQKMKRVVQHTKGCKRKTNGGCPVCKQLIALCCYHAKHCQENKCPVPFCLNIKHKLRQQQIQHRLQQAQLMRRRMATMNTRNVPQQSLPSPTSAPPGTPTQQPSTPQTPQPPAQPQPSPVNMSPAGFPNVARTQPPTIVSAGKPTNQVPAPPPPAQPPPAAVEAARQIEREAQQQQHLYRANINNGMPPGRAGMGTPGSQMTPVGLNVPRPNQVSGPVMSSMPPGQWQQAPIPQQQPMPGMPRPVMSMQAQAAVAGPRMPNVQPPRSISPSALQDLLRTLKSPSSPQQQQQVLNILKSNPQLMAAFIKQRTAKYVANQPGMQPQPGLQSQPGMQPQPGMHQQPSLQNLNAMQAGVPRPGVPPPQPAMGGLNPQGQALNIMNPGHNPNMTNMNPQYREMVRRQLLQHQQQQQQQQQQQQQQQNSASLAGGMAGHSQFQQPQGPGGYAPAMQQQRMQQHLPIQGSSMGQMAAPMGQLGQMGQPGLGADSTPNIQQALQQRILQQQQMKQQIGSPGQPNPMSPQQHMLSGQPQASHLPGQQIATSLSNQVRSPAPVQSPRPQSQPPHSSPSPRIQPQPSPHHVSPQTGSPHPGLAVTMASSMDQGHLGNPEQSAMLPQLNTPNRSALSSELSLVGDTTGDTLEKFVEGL

## CCCCCCCCCCCCCC(=O)O[C@@H]1[C@@H](C)[C@@]2(O)[C@@H](C=C(CO)C[C@]3(O)C(=O)C(C)=C[C@@H]23)[C@@H]2C(C)(C)[C@]12OC(C)=O [TPA, 12-O-tetradecanoyl phorbol acetate]
[1]
  CREB:CBP complex formation detected with αKK antiserum: no CREB:CBP complexes were detected
[2]
  somatostatin mRNA accumulation: no discernible effect
[3]; 10 minutes, immunofluorescence
  accumulation of phospho (Ser133) CREB: comparable levels of Ser133 phosphorylation
[3]; 30 minutes, Western blot with antiserum 5322
  Ser133 phosphorylation of CREB: induced Ser133 phosphorylation of CREB with comparable stoichiometry to forskolin induction

## C=C[C@@]1(C)CC(=O)[C@]2(O)[C@@]3(C)[C@@H](O)CCC(C)(C)[C@@H]3[C@H](O)[C@H](OC(C)=O)[C@@]2(C)O1 [forskolin]
[2]
  somatostatin mRNA accumulation: 5 fold
